Source: ChEMBL document CHEMBL5465560, “Selectivity Literature for EUbOPEN Chemogenomic Library” (2024)

Tests used:
[1] = target: T1, Receptor-interacting serine/threonine-protein kinase 4 (Homo sapiens) (UniProt P57078); assay: Selectivity interaction (KinomeScan (DiscoverX)) EUB0000229b RIPK4; conditions: at 10 µM
T1 sequence (whole entry): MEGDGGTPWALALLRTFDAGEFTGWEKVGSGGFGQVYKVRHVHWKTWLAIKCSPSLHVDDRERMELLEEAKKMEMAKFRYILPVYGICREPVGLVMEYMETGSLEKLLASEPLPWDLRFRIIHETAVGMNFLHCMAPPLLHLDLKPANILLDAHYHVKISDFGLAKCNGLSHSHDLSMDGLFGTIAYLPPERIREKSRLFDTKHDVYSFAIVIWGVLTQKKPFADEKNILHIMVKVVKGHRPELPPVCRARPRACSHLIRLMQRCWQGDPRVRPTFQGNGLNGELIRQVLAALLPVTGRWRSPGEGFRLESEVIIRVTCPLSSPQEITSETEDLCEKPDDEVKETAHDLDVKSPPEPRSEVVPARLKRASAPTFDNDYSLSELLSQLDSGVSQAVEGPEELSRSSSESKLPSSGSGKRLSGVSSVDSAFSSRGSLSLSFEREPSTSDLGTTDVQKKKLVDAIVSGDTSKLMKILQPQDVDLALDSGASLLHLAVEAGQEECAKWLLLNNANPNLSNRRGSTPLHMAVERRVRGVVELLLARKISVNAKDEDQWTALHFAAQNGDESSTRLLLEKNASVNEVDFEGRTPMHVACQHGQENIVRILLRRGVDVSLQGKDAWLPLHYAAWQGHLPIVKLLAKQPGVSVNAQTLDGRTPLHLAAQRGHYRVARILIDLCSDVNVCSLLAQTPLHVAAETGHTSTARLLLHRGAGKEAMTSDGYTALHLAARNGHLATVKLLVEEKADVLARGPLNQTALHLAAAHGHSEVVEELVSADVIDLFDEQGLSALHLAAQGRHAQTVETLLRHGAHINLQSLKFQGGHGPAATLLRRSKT

[2] = target: 5-hydroxytryptamine receptor 2B (Homo sapiens, UniProt P41595); assay: Selectivity interaction (Serotonin 5HT2B Calcium flux assay, agonist mode ) EUB0000877a HTR2B
[3] = target: Ribosomal protein S6 kinase beta-1 (Homo sapiens, UniProt P23443); assay: Selectivity interaction (KinomeScan (DiscoverX)) EUB0000045b RPS6KB1
[4] = target: Tyrosine-protein kinase JAK2 (Homo sapiens, UniProt O60674); assay: Selectivity interaction (Kinase panel (Carna Biosciences)) EUB0001542aTs JAK2; conditions: at 1 µM
[5] = target: T2, Discoidin domain-containing receptor 2 (Homo sapiens) (UniProt Q16832); assay: Selectivity interaction (KinomeScan (DiscoverX)) EUB0000618a DDR2; conditions: at 10 µM
T2 sequence (whole entry): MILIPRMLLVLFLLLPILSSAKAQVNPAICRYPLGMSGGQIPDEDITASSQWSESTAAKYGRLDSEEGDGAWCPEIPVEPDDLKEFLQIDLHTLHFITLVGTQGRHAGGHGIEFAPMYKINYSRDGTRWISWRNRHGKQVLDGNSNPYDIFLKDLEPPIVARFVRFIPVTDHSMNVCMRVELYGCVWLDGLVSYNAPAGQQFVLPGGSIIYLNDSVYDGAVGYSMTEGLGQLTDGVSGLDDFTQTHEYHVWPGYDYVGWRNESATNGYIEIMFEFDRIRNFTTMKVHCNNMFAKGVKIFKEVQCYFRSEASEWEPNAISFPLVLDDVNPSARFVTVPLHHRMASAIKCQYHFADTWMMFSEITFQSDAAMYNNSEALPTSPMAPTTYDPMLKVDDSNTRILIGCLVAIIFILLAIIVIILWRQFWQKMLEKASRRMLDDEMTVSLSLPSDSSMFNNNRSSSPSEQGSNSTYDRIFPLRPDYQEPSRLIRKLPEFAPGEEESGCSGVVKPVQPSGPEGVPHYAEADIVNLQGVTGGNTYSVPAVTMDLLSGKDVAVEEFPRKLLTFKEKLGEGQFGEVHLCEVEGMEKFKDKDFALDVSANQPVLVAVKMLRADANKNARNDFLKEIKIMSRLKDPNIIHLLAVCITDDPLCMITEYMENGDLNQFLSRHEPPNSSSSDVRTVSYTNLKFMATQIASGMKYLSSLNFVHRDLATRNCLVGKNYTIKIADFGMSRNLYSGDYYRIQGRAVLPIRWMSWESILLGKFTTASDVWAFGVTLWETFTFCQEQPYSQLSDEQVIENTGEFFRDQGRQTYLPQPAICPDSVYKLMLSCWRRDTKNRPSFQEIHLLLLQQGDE

[6] = target: T3, Serine/threonine-protein kinase Nek11 (Homo sapiens) (UniProt Q8NG66); assay: Selectivity interaction (KinomeScan (DiscoverX)) EUB0000618a NEK11; conditions: at 10 µM
T3 sequence (whole entry): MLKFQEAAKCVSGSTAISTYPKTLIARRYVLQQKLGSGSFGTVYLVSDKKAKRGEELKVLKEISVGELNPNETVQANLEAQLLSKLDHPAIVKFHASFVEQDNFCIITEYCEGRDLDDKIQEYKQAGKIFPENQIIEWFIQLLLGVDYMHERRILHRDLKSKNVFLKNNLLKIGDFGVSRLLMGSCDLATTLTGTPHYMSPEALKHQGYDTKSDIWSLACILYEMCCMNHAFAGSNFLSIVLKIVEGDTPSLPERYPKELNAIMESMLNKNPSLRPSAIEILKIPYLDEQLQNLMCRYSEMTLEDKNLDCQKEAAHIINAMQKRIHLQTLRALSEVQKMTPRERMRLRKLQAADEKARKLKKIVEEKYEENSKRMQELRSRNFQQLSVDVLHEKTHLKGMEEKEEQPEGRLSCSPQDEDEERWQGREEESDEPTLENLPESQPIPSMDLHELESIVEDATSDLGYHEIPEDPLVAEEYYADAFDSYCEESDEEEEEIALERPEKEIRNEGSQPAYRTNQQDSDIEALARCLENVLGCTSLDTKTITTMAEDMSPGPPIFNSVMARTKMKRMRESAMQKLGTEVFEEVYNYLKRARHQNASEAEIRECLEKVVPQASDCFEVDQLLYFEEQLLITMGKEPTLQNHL

Sequence of Ribosomal protein S6 kinase beta-1 (P23443 whole entry, looked up): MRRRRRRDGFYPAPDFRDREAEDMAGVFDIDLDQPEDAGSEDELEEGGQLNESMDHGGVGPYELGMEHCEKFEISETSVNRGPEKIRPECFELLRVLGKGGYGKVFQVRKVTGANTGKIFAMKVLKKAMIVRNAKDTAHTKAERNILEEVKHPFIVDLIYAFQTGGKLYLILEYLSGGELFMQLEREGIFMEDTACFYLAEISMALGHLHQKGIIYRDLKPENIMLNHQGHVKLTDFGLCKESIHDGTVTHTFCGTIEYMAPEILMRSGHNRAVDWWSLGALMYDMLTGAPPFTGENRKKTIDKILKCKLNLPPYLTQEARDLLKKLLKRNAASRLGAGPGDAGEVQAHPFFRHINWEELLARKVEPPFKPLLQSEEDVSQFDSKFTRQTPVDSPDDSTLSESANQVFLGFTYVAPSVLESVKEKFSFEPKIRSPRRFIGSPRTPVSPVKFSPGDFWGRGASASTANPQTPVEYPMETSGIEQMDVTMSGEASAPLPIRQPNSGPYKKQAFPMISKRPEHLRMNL
Sequence of 5-hydroxytryptamine receptor 2B (P41595 whole entry): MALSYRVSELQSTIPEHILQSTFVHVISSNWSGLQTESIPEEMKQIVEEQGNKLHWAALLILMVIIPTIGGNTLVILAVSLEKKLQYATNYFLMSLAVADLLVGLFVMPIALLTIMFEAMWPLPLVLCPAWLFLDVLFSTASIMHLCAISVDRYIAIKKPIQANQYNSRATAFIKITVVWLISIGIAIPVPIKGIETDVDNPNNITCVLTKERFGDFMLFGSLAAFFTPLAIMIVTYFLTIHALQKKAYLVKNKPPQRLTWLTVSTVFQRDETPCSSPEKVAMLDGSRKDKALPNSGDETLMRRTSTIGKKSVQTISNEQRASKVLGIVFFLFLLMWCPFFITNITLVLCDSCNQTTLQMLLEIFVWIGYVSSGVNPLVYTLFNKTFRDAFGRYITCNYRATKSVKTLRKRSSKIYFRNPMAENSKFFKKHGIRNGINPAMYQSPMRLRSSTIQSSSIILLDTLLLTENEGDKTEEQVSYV
Sequence of Tyrosine-protein kinase JAK2 (O60674 whole entry, the tested form may be a part): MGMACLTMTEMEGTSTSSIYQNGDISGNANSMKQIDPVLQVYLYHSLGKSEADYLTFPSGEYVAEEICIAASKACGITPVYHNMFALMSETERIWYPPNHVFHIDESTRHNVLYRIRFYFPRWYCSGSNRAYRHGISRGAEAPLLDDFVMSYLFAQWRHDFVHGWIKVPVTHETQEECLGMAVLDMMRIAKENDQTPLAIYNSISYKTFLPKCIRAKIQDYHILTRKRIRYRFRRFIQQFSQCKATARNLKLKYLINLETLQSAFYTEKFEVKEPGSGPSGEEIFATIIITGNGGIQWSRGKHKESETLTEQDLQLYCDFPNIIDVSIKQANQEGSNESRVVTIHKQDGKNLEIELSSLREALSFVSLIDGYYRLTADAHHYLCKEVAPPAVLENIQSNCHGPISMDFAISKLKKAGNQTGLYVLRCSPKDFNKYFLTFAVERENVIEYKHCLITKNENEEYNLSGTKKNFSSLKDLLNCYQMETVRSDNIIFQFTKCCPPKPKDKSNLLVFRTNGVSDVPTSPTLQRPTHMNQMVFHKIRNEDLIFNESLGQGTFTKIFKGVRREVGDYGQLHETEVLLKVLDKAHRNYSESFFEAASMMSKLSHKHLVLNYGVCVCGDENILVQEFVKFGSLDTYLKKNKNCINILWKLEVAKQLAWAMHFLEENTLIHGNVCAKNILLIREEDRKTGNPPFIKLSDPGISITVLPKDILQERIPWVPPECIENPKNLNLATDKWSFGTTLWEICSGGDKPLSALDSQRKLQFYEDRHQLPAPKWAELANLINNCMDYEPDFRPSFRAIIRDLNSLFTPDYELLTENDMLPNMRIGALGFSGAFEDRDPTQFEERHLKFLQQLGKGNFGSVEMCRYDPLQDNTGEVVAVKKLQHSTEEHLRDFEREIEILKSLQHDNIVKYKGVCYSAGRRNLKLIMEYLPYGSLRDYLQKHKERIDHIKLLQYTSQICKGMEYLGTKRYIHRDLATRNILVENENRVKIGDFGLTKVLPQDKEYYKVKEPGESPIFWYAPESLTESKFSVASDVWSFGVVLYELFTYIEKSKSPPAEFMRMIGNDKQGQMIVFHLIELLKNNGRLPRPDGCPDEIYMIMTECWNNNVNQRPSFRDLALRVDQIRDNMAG

## COc1cc(N(C)c2ccnc3ccc(C(F)(F)F)cc23)cc(OC)c1OC
[1]
  % binding: 68%

## CCC(=O)N1CC[C@H](Nc2ncnc3c2CN(c2cnc(OC)c(C(F)(F)F)c2)CC3)C1 [LENIOLISIB]
[2]
  IC50: > 30 µM

## C=CC(=O)Nc1cc(-n2c(=O)ccc3cnc4ccc(-c5ccc(NS(C)(=O)=O)cc5)cc4c32)ccc1C
[3]; at 1 µM
  % of control: 100%
[3]; at 10 µM
  % of control: 76%

## Cn1cc(Nc2nccc(N3CC4CCC(C3)N4C(=O)[C@@H]3CC3(F)F)n2)cn1
[4]
  % of inhibition: 94%

## O[C@H]1CC[C@H](Nc2ncc3nc(Nc4c(F)cc(F)cc4F)n([C@H]4CCOC4)c3n2)CC1
[5]
  % of control: 89%
[6]
  % of control: 90%
